Legend:
Experiment in all cases: relative viability (nuclei count vs DMSO), 5 days (fraction); higher = more cells survive
[1] = compound: C=CC(=O)Nc1cc(-n2c(=O)ccc3cnc4ccc(-c5ccc(NS(C)(=O)=O)cc5)cc4c32)ccc1C [BMX-IN-1] + N=C(N)NC(=N)NCCc1ccccc1 [Phenformin] (partner 250 µM)
Procedure, shortened: (§1)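 Medians of duplicate plates are given as relative viability. That measure is the nuclei count in treated wells divided by the count in vehicle wells. Counts were taken on 4× images of lung cancer cell lines in 1536-well plates, 5 days after pin-tool dosing the day after seeding with one drug alone or a fixed anchor-drug dose plus five library-drug doses (not always all listed) in √10 steps.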

[2] = compound: C=CCc1cccc(/C=N/NC(=O)CN2CCN(Cc3ccccc3)CC2)c1O [PAC-1] + Nc1nc2[nH]cc(CCc3ccc(C(=O)N[C@@H](CCC(=O)O)C(=O)O)cc3)c2c(=O)[nH]1 [Pemetrexed] (partner 0.2 µM)
Procedure, shortened: as §1

[3] = compound: C=CC(=O)Nc1cc(-n2c(=O)ccc3cnc4ccc(-c5ccc(NS(C)(=O)=O)cc5)cc4c32)ccc1C [BMX-IN-1] + Nc1nc2[nH]cc(CCc3ccc(C(=O)N[C@@H](CCC(=O)O)C(=O)O)cc3)c2c(=O)[nH]1 [Pemetrexed] (partner 0.2 µM)
Procedure, shortened: as §1

[4] = compound: C=CC(=O)N1CCC[C@@H](n2nc(-c3ccc(Oc4ccccc4)cc3)c3c(N)ncnc32)C1 [Ibrutinib] + Cc1cc(Nc2cc(N3CCN(C)CC3)nc(Sc3ccc(NC(=O)C4CC4)cc3)n2)n[nH]1 [Tozasertib] (partner 0.1 µM)
Procedure, shortened: as §1

Cell Line | relative viability ([1]; first compound 0.02 µM) | relative viability ([1]; first compound 0.2 µM) | relative viability ([1]; first compound 0.6325 µM) | relative viability ([1]; first compound 2 µM) | relative viability ([2]; first compound 0.02 µM) | relative viability ([2]; first compound 0.06325 µM) | relative viability ([2]; first compound 0.2 µM) | relative viability ([2]; first compound 2 µM) | relative viability ([3]; first compound 0.02 µM) | relative viability ([3]; first compound 0.2 µM) | relative viability ([3]; first compound 0.6325 µM) | relative viability ([3]; first compound 2 µM) | relative viability ([4]; first compound 0.005 µM) | relative viability ([4]; first compound 0.01581 µM) | relative viability ([4]; first compound 0.05 µM) | relative viability ([4]; first compound 0.1581 µM) | relative viability ([4]; first compound 0.5 µM)
A-427 | 0.192 | 0.324 | 0.348 | 0.37 | 0.992 | 1.01 | 1.09 | 0.977 | 1.01 | 1.05 | 1.11 | 0.992 | 0.22 | 0.185 | 0.281 | 0.23 | 0.212
LC-2-ad | 0.553 | 0.555 | 0.722 | 0.617 | 0.26 | 0.296 | 0.265 | 0.27 | 0.265 | 0.28 | 0.277 | 0.281 | 0.497 | 0.413 | 0.388 | 0.449 | 0.382
COR-L23 | 0.499 | 0.553 | 0.46 | 0.48 | 0.206 | 0.192 |  | 0.206 | 0.188 | 0.204 | 0.206 | 0.165 | 0.209 | 0.214 | 0.247 | 0.227 | 0.181
NCI-H522 | 0.77 | 0.64 | 0.669 | 0.635 | 0.945 | 0.902 | 1.08 | 0.955 | 1 | 1.03 | 1.12 | 1.14 | 0.503 | 0.521 | 0.476 | 0.55 | 0.46
NCI-H3122 | 0.377 | 0.633 | 0.41 | 0.38 | 0.196 | 0.199 | 0.201 | 0.207 | 0.203 | 0.206 | 0.19 | 0.19 | 0.507 | 0.395 | 0.343 | 0.415 | 0.46
NCI-H322M | 0.867 | 0.821 | 0.795 | 0.791 | 0.591 | 0.65 | 0.618 | 0.603 | 0.596 | 0.689 | 0.65 | 0.586 | 0.426 | 0.459 | 0.415 | 0.474 | 0.354
HCC-44 | 0.321 | 0.269 | 0.251 | 0.262 | 0.649 | 0.615 | 0.588 | 0.684 | 0.727 | 0.663 | 0.625 | 0.678 | 1.1 | 0.945 | 0.734 |  | 0.998
NCI-H441 | 0.864 | 1.02 | 0.991 | 1 | 0.296 | 0.254 | 0.28 | 0.237 | 0.225 | 0.267 | 0.282 | 0.256 | 0.596 | 0.64 | 0.801 | 0.73 | 0.809
NCI-H2347 | 0.314 | 0.368 | 0.38 | 0.357 | 0.412 | 0.435 | 0.41 | 0.46 | 0.412 | 0.298 | 0.417 | 0.397 |  | 0.643 | 0.739 | 0.532 | 0.548
HCC-827 | 0.342 | 0.42 | 0.4 | 0.421 | 0.275 | 0.259 | 0.256 | 0.256 | 0.237 | 0.297 | 0.287 | 0.235 | 0.396 | 0.39 | 0.513 | 0.437 | 0.224
LOU-NH91 | 0.411 |  | 0.882 | 0.704 | 0.368 | 0.365 | 0.379 | 0.39 |  | 0.406 | 0.392 | 0.366 | 0.699 | 0.582 | 0.581 | 0.648 | 0.488
NCI-H1651 | 0.292 | 0.451 | 0.394 | 0.363 | 0.596 | 0.538 | 0.525 | 0.712 | 0.391 | 0.642 | 0.781 | 0.486 | 0.558 | 0.7 | 0.757 | 0.668 | 0.944
PC-3 [JPC-3] | 0.459 | 0.488 | 0.483 | 0.491 | 1.09 | 1.32 | 1.25 | 1.09 | 0.933 | 1.28 | 1.44 | 1.04 | 0.872 | 0.772 | 0.873 | 0.99 | 0.681
NCI-H596 | 0.891 | 0.981 | 0.732 | 0.83 | 0.435 | 0.471 | 0.477 | 0.54 | 0.497 | 0.522 | 0.496 | 0.511 |  | 0.922 | 0.858 | 0.943 | 0.722
NCI-H838 | 0.564 | 0.739 | 0.744 | 0.572 | 0.22 | 0.235 | 0.238 | 0.206 | 0.255 | 0.244 | 0.237 | 0.236 | 0.261 | 0.261 | 0.285 | 0.27 | 0.277
NCI-H358 | 0.355 | 0.342 | 0.384 | 0.324 | 0.165 | 0.161 | 0.187 | 0.183 | 0.167 | 0.182 | 0.176 | 0.175 | 0.103 |  | 0.0879 | 0.12 | 0.0917
NCI-H647 | 0.537 | 0.547 | 0.599 | 0.661 | 0.176 | 0.207 | 0.163 | 0.168 | 0.162 | 0.169 | 0.15 | 0.142 |  | 0.298 | 0.39 | 0.347 | 0.174
HCC-366 | 0.503 | 0.625 | 0.639 | 0.603 | 0.176 | 0.162 | 0.159 | 0.164 | 0.163 | 0.183 | 0.165 | 0.202 | 0.127 | 0.116 | 0.107 | 0.118 | 0.0964

Source: the supplement of paper PMC10307832
